Test results published in patent US7521438B1, “Combination of loteprednol and β2-adrenoceptor agonists” (MEDA Pharma GmbH & Co. KG, priority 1999, dated 2009).

Columns and labels:
TNFα release = test: LPS-induced TNFα release in human blood diluted 1:5 (ELISA); assay type: cell-based; conditions: human blood diluted 1:5, LPS 10 μg/ml, 24 h, n = 8
Method: In vitro investigations were carried out for influencing the release of the proinflammatory cytokine TNFα in human blood diluted 1:5. Stimulation was carried out using lipopolysaccharide (LPS) of Salmonella abortus equi (10 μg/ml) over the course of 24 h at 37° C. and 5% CO2 in an incubator. The TNFα release was carried out using an ELISA, composed from antibodies from Pharmigen. The results were indicated as the percentage inhibition of LPS-induced TNFα release (Table 1).

[1] = system: eosinophilic granulocytes in the lung; test: Late-phase eosinophilia in actively sensitized guinea pigs, pulmonary lavage 24 h after allergen provocation; assay type: in vivo; conditions: guinea pig
[2] = Thymus involution in young rats on intrapulmonary powder administration over 29 days; assay type: in vivo; conditions: for Toxic dose with significant thymus involution: repeated intrapulmonary administration, 29 days, 1x daily, young rats; for Quotient of toxic dose: therapeutic dose (therapeutic breadth): toxic dose (mg/kg, 29 days) / ID50 (μg/kg, single dose), intrapulmonary, rats
Method: In the second experiment, the influence of loteprednol on the thymus development of young rats (21 days old at the start of the experiment) was intensively investigated in comparison to budesonide and fluticasone (see Table 4). After an intrapulmonary long-term administration of the active compound in powder form over the course of 29 days (1× daily) by means of a tube, at the end of the experiment the thymus glands were removed and the organ weight per 100 g of body mass was determined.
(§1) The therapeutic breadth of the corticosteroids was determined with the aid of the quotient of the dose (mg/kg) with significant thymus involution (toxic dose) on repeated intrapulmonary administration over the course of 29 days (1× daily) and the therapeutic dose. The therapeutic dose was determined in the asthma model of late-phase eosinophilia on actively sensitized brown Norway rats. The active compound was administered to the sensitized brown Norway rats under anesthesia intrapulmonarily 2 hours before an allergen provocation (challenge) and 24 hours later the lungs of the animals were lavaged under deep anesthesia. The number of eosinophilic granulocytes in the pulmonary lavage fluid of untreated and active compound-treated rats was then determined. Corticosteroids such as loteprednol inhibit the infiltration of eosinophils into the lung after allergen provocation.

[3] = system: eosinophilic granulocytes in the pulmonary lavage fluid; test: Late-phase eosinophilia in actively sensitized brown Norway rats, single intrapulmonary administration; assay type: in vivo; conditions: 2 h before allergen provocation
Method: as §1

[4] = topically administered; cited from earlier work
[5] = topically administered; cited from earlier work; remark: listed apart in the source

CCOC(=O)O[C@]1(C(=O)OCCl)CC[C@H]2[C@@H]3CCC4=CC(=O)C=C[C@]4(C)[C@H]3[C@@H](O)C[C@@]21C [Loteprednol, loteprednol]
inhibition at 0.001 µM (TNFα release; 0.001 μmol/l): 1%
Inhibition of eosinophilia ([1]; 0.001 mg/kg intrapulmonarily): 10.5%
Inhibition of eosinophilia ([1]; 0.003 mg/kg intrapulmonarily): 21.8%
Toxic dose with significant thymus involution [2]: 20000 µg/kg
Quotient of toxic dose: therapeutic dose (therapeutic breadth) [2]: 45.5 ×10^3
Therapeutic dose in late-phase eosinophilia ID50 [3]: 0.44 µg/kg
Increase of intraocular pressure [4]: does not increase the intraocular pressure
Detection in the plasma [5]: could not be detected in the plasma

C[C@@H]1C[C@H]2[C@@H]3C[C@H](F)C4=CC(=O)C=C[C@]4(C)[C@@]3(F)[C@@H](O)C[C@]2(C)[C@@]1(O)C(=O)SCF [Fluticasone, fluticasone]
Toxic dose with significant thymus involution [2]: 1000 µg/kg
Quotient of toxic dose: therapeutic dose (therapeutic breadth) [2]: 33 ×10^3
Therapeutic dose in late-phase eosinophilia ID50 [3]: 0.03 µg/kg

CC(C)(C)NCC(O)c1ccc(O)c(CO)c1 (stereo not drawn) [Salbutamol, salbutamol]
inhibition at 10 µM (TNFα release; 10 μmol/l): 17%

CCCC1O[C@@H]2C[C@H]3[C@@H]4CCC5=CC(=O)C=C[C@]5(C)[C@H]4[C@@H](O)C[C@]3(C)[C@]2(C(=O)CO)O1 (stereo partly drawn) [Budesonide, budesonide]
Toxic dose with significant thymus involution [2]: 500 µg/kg
Quotient of toxic dose: therapeutic dose (therapeutic breadth) [2]: 5 ×10^3
Therapeutic dose in late-phase eosinophilia ID50 [3]: 0.1 µg/kg
